Experimental findings from patent US12637448B2, “Tricyclic compounds and use thereof” (HELIOEAST PHARMACEUTICAL CO., LTD, priority 2020, dated 2026) are described below.

Data set [1] has as its target T1, S1PR1 (Homo sapiens, UniProt P21453).
T1 construct: expressed in transfected cells
Kind of data set: In vitro S1PR1 agonistic activity (PathHunter cell line, chemiluminescence). Particulars: for Emax: % activity relative to maximum control ligand; for EC50: agonist mode, 90-180 minutes at 37° C. Format: cell-based. The method, then:
Test Embodiment 1: In Vitro Evaluation of the Agonistic Activity of the Compounds of the Present Disclosure on S1PR1
Experimental Objective: To Detect the Agonistic Activity of Compounds on S1PR1
• 1. A PathHunter cell line was thawed according to standard procedures; • 2. the cells were inoculated in a 20 μL 384-well microplate and incubated at 37° C. for appropriate time. II. Agonist • 1. For agonist determination, cells were incubated with samples to be tested to induce a reaction; • 2. a storage solution to be tested was 5-fold diluted into a buffer; • 3. 5 μL of the 5-fold dilution was added to the cells and incubated at 37° C. for 90-180 minutes. The vehicle concentration was 1%. III. Signal Detection • 1. 12.5 μL or 15 μL of PathHunter detection reagent at a volume ratio of 50% was added at a time, and then incubated at room temperature for 1 hour to generate a detection signal; • 2. the microplate was read with a PerkinElmer Envision™ instrument for chemiluminescent signal detection. IV. Data Analysis • 1. Activity analysis of the compound was carried out by using CBIS data analysis kit (ChemInnovation, CA); • 2. Calculation formula: % activity=100%×(average test sample RLU−average vehicle RLU)/(average maximum control ligand−average vehicle RLU)

Data set [2] in a line: Pharmacokinetic evaluation in CD-1 mice (intravenous injection and oral administration). Particulars: mouse, male, plasma. The data set is classed as in vivo. How it is done: Test Embodiment 3: Pharmacokinetic Evaluation of Compound in Mice
Experimental Objective: To Test the Pharmacokinetics of the Compound in CD-1 Mice
CD-1 mice (male, 20-40 g, 6-10 weeks old, Shanghai BK)
(§1) The standard protocol was used to test the pharmacokinetic characteristics of rodents after intravenous injection and oral administration of the compound. In the experiment, the candidate compound was prepared into a clear solution, and administrated to two mice by single intravenous injection and oral administration. The vehicle for intravenous injection was a 5:95 DMSO and 10% hydroxypropyl β-cyclodextrin aqueous solution, and the vehicle for oral administration was a 0.5% w/v methylcellulose and 0.2% w/v tween 80 aqueous solution. Whole blood samples within 24 hours were collected, centrifuged at 3200 g for 10 minutes, and the supernatant was separated to obtain plasma samples. Four times the volume of acetonitrile solution containing internal standard was added thereto to precipitate protein. The mixture was centrifuged, and the supernatant was taken, and an equal volume of water was added thereto. Then the mixture was centrifuged and the supernatant was taken for injection. The blood drug concentration was quantitatively analyzed by LC-MS/MS analysis method, and pharmacokinetic parameters, such as peak concentration, tissue distribution, clearance rate, half-life, area under the drug-time curve and bioavailability, were calculated.

Data set [3] in a line: Pharmacokinetic evaluation in SD rats (intravenous injection and oral administration). As to conditions: Sprague-Dawley, plasma, SD rat, male. The data set is classed as in vivo. The method, then:
Test Embodiment 2: Pharmacokinetic Evaluation of Compound in Rats
Experimental Objective: To Test the Pharmacokinetics of the Compound in SD Rats
Sprague Dawley rat (male, 200-300 g, 7-9 weeks old, Shanghai SLAC)
as §1, with “A standard” for “The standard”, “to rats” for “to two mice”, “at 3000” for “at 3200”, “for 15” for “for 10”, “concentration, clearance rate,” for “concentration,”, “distribution,” for “distribution, clearance rate,”

T1 sequence (P21453 whole entry): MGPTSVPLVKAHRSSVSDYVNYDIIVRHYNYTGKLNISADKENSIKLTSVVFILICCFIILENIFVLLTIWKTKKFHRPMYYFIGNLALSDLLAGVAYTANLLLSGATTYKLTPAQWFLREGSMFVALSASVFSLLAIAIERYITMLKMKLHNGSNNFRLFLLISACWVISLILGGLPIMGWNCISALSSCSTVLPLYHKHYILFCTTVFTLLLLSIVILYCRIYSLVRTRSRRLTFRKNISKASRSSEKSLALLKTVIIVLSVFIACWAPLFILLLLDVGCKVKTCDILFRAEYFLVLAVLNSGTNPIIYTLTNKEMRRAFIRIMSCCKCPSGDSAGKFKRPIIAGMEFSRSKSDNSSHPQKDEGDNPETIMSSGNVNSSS

Consider `CC(C)Oc1ncc(-c2nc(-c3cccc4c3CCC43CC(=O)N(CCC(=O)O)C3)no2)cc1C#N` (centres unmarked) [Compound 9], for which, in data set [1], the Emax (as a rule, the maximal effect, on the per cent scale that the assay sets) turned out to be 104% and the EC50 (in general, the concentration at which the effect is half-maximal) is 0.613 nM.
In data set [1], `CC(C)Oc1ncc(-c2ncc(-c3cccc4c3CCC43CC(=O)N(CCO)C3)cn2)cc1C#N` (centres unmarked) [Compound 6] showed an Emax of 78.5% and an EC50 of 7.1 nM.
Taken in the same sequence, the figures for `CC(C)Oc1ncc(-c2ncc(-c3cccc4c3CCC43CC(=O)N(CCO)C3)s2)cc1C#N` (centres unmarked) [Compound 7] were 88.1% and 2.84 nM.
Taken in the same sequence, the figures for `CC(C)Oc1ncc(-c2nc(-c3cccc4c3CCC43CC(=O)N(CC(=O)O)C3)no2)cc1C#N` (centres unmarked) [Compound 8] were 110% and 1.25 nM.
Taken in the same sequence, the figures for `CC(C)Oc1ncc(-c2nc(-c3cccc4c3CCC43CCN(C4CC(C(=O)O)C4)C3)no2)cc1C#N` (centres unmarked) [Compound 10] were 92% and 0.474 nM.
Regarding `CC(C)Oc1ncc(-c2nc(-c3cccc4c3CCC43CC(=O)N(CCO)C3)no2)cc1C#N` (centres unmarked) [Compound 1], the Cmax in data set [2] (intravenous 0.5 mg/kg / oral 2.0 mg/kg, read-out: Peak concentration Cmax) is 2830 ng/mL; in data set [3] (intravenous 1.0 mg/kg / oral 3.0 mg/kg, read-out: Peak concentration Cmax) it was 3100 ng/mL. Besides, the AUC(0-t) turned out to be 21.3 µM·h in data set [2] (PO 2.0 mg/kg, read-out: Area under the drug-time curve AUC0-last PO) and 35.5 µM·h in data set [3] (PO 3.0 mg/kg, read-out: Area under the drug-time curve AUC0-last PO). In addition, the half-life in data set [2] (PO 2.0 mg/kg, read-out: Half-life T1/2 (PO) (converted)) is 3.5 h; in data set [3] (PO 3.0 mg/kg, read-out: Half-life T1/2 (PO) (converted)) it was 7.22 h. For the same compound, the clearance in data set [2] (intravenous 0.5 mg/kg / oral 2.0 mg/kg, read-out: Clearance rate CL) was found to be 3.42 mL/min/kg; in data set [3] (intravenous 1.0 mg/kg / oral 3.0 mg/kg, read-out: Clearance rate CL), 1.66 mL/min/kg. Besides, the Vd is 0.902 L/kg in data set [2] (intravenous 0.5 mg/kg / oral 2.0 mg/kg, read-out: Tissue distribution Vdss) and 1.18 L/kg in data set [3] (intravenous 1.0 mg/kg / oral 3.0 mg/kg, read-out: Tissue distribution Vdss). In addition, the bioavailability (commonly dose-corrected exposure relative to a reference, in per cent) in data set [2] (intravenous 0.5 mg/kg, oral 2.0 mg/kg, read-out: Bioavailability F) was 100%; in data set [3] (intravenous 1.0 mg/kg, oral 3.0 mg/kg, read-out: Bioavailability F) it was 71.9%. For the same compound, the Emax in data set [1] was determined as 99.3%. Further, the EC50 in data set [1] was determined as 0.134 nM.
In the case of `CC(C)Oc1ncc(-c2nsc(-c3cccc4c3CCC43CC(=O)N(CCO)C3)n2)cc1C#N` (centres unmarked) [Compound 4], in data set [1], the Emax stood at 67.6% and it took 20.9 nM to reach a half-maximal effect (EC50).
In data set [1], `CC(C)Oc1ncc(-c2nc(-c3cccc4c3CCC43CC(=O)N(CCO)C3)no2)cc1Br` (centres unmarked) [Compound 3] showed a maximum response (Emax) of 62.8% and an EC50 of 4.46 nM.
Taken in the same sequence, the figures for `CC(C)Oc1ncc(-c2nnc(-c3cccc4c3CCC43CC(=O)N(CCO)C3)s2)cc1C#N` (centres unmarked) [Compound 11] were 104% and 6.12 nM.
In data set [1], `CC(C)Oc1ncc(-c2ncc(-c3cccc4c3CCC43CC(=O)N(CCO)C3)o2)cc1C#N` (centres unmarked) [Compound 5] gave an Emax of 63.5% and a concentration giving a half-maximal response (EC50) of 24.3 nM.
